Where a name gives a salt, the structure may show the parent alone.

Drawing on patent publication US5118687A, “1-oxa-2-oxo-8-azaspiro(4,5)decane derivatives, pharmaceutical compositions containing them and process for preparing same” (Richter Gedeon Vegyeszeti Gyar Rt., priority 1989, dated 1992), this text covers ED50, IC50 and Protected animals for nine compounds.

Assay [1] deals with Male Hannover-Wistar rats. Nature of the assay: Potassium cyanide test: protective effect against histotoxic hypoxia. In kind it is in vivo, rat (Hannover-Wistar). To be noted: Rattus norvegicus, po, read-out: ED50 p.o. (dose protecting half of the treated animals from the hypoxia).
For assay [2], the system named is rat brain synaptosomal preparation. Nature of the assay: Calcium uptake-inhibiting action: inhibition of potassium-stimulated 45Ca uptake in a rat brain synaptosomal preparation. To be noted: rat brain cortex synaptosomes; 60 mM potassium chloride stimulation; 34° C.; incubation 20 seconds; pH 7.4; read-out: IC50 (50% inhibition of the stimulated 45Ca uptake). The format is biochemical, rat (Wistar). From the text: The calcium uptake-inhibiting action of the novel compounds of formula (I) was studied on a rat brain synaptosomal preparation by using the method of P. H. Wu et al. [J. Neurochem. 39, 700 (1982)].
Wistar rats weighting 180 to 200 g were decapitated, their brains were collected in an ice-cold physiological saline solution, the cortex was removed and purified from the white substance. The tissue was homogenized in 10 volumes of 0.32M sucrose solution by using a glass-teflon potter. After centrifuging the homogenate at a rate of 1000×g at 4° C. for 10 minutes, the supernatant was further centrifuged at 10000×g for 20 minutes. The sediment was taken up in a 0.32M sucrose solution in such a way that the protein content of the preparation was adjusted to 20 mg/ml.
The medium (containing 112 mM of sodium chloride, 5 mM of potassium chloride, 1.3 mM of magnesium chloride, 1.2 mM of sodium dihydrogen phosphate, 1.2 mM of calcium chloride, 10 mM of glucose, 20 mM of IRIS buffer) used for the incubation was saturated with carbogen, consisting of 95% by volume of oxygen and 5% by volume of carbon dioxide, up to a pH of 7.4. After adding the test substances to the medium, the synaptosomal preparation was added in an amount corresponding to 1 mg of protein. The incubation was carried out in a final volume of 1 ml. The samples were pre-incubated at 34° C. for 20 minutes. The calcium uptake was begun by using a ^45 Cacl2 solution of 75 nCi activity. Potassium chloride used for investigating the potassium-induced ^45 Ca uptake was employed in 60 mM concentration whereas sodium chloride was added in the same concentration to the control samples. The incubation lasted 20 seconds. The reaction was stopped by 5 ml of a stopping solution containing 120 mM of sodium chloride, 5 mM of potassium chloride, 5 mM of EGTA and 20 mM of TRIS at pH 7.4. The samples were filtered through a Whatman GF/C filter paper and twice washed with 5 ml of a washing solution each, containing 132 mM of sodium chloride, 5 mM of potassium chloride, 1.3 mM of magnesium chloride, 1.2 mM of calcium chloride and 20 mM of IRIS at pH 7.4. (Abbreviations used above: TRIS means tris(hydroxymethyl)aminomethane; EGTA means ethylene glycol bis(β-aminoethyl) ether-N,N,N',N'-tetraacetic acid).
The filter papers were put into glass cuvets, 10 ml of a scintillation liquid each were added, then the radioactivity of the samples was measured in an 1219 Rackbeta (LKB Wallace) liquid scintillation spectrophotometer.
The IC50 values obtained by examination of the concentration/effect correlations are shown in Table I. IC50 value means the molar concentration of the test compounds which causes 50% inhibition of the stimulated ^45 Ca uptake.

Another assay concerns CFLP mice. Nature of the assay: Antihypoxic effect: asphyxial action in closed glass cylinder (method of Caillard et al.), survival time. The settings on record: 50 mg/kg oral, 60 minutes before test; n = 10; protected = surviving longer by 30% than average survival time of control group (23.5 ± 2.51 sec). In kind it is in vivo, mouse (CFLP). How it is done:
The antiphypoxic effect was studied by using two methods. According to the method of C. Caillard et al. [Life Sci. 16, 1607 (1975)] the asphyxial action was determined after starvation for 16 hours on CFLP mice of both sexes weighting 24 to 26 g. Each animal was placed in a separate well-closed glass cylinder. The interval passing from closing the cylinder until the cessation of the last visible respiratory movement was registered as survival time. Animals, surviving longer by 30% than the average survival time of the control group, were considered to be protected. The test substances were administered in an oral dose of 50 mg/kg by 60 minutes before starting the examination.

On to `C=C1N(CCCC)C(=O)OC12CCN(CCCC(c1ccc(F)cc1)c1ccc(F)cc1)CC2` [Compound 1, 1-Oxa-2-oxo-3-butyl-4-methylene-8-[4,4-bis(4-fluorophenyl)butyl]-3,8-diazaspiro[4,5]decane], for which the 50% effective dose (ED50) in assay [1] amounted to 40.9 mg/kg. The IC50 in assay [2] turned out to be 5.8 µM. The corresponding values for `C=C1N(C(C)(C)C)C(=O)OC12CCN(CCCC(c1ccc(F)cc1)c1ccc(F)cc1)CC2` [Compound 2, 1-Oxa-2-oxo-3-tert-butyl-4-methylene-8-[4,4-bis(4-fluorophenyl)butyl]-3,8-diazaspiro[4,5]decane] are 39.9 mg/kg and 5.9 µM.

In the case of `C=C1N(c2ccccc2)C(=O)OC12CCN(CCCC(c1ccc(F)cc1)c1ccc(F)cc1)CC2` [Compound 3, 1-Oxa-2-oxo-3-phenyl-4-methylene-8-[4,4-bis(4-fluorophenyl)butyl]-3,8-diazaspiro[4,5]decane], the concentration for half-maximal inhibition (IC50) in assay [2] is 2.1 µM.

In the case of `C=C1N(C2CCCCC2)C(=O)OC12CCN(CCCC(c1ccc(F)cc1)c1ccc(F)cc1)CC2` [Compound 4, 1-Oxa-2-oxo-3-cyclohexyl-4-methylene-8-[4,4-bis(4-fluorophenyl)butyl]-3,8-diazaspiro[4,5]decane], in assay [1], the 50% effective dose (ED50) is 37.9 mg/kg. Moreover, in assay [2], the 50% inhibitory concentration (IC50) stood at 5.3 µM. Regarding `CCCCN1C(=O)OC2(CCN(CCCC(c3ccc(F)cc3)c3ccc(F)cc3)CC2)C1(C)O` (stereo not drawn) [Compound 5, 1-Oxa-2-oxo-3-butyl-4-hydroxy-4-methyl-8-[4,4-bis(4-fluorophenyl)butyl]-3,8-diazaspiro[4,5]decane hydrochloride], the IC50 in assay [2] is 6.1 µM. Regarding `CN1C(=O)OC2(CCN(CCc3ccc(F)cc3)CC2)C1(C)O` (stereo not drawn) [Compound 6, 1-Oxa-2-oxo-3,4-dimethyl-4-hydroxy-8-[2-(4-fluorophenyl)ethyl]-3,8-diazaspiro[4,5]decane], the Protected animals in the assay on CFLP mice stood at 60%. For `CCCN1C(=O)OC2(CCN(CCc3ccc(F)cc3)CC2)C1(C)O` (stereo not drawn) [Compound 7, 1-Oxa-2-oxo-3-propyl-4-hydroxy-4-methyl-8-[2-(4-fluorophenyl)ethyl]-3,8-diazaspiro[4,5]decane], in the assay on CFLP mice, the Protected animals is 40%. On to `CC1(O)N(C2CCCCC2)C(=O)OC12CCN(CCc1ccc(F)cc1)CC2` (stereo not drawn) [Compound 8, 1-Oxa-2-oxo-3-cyclohexyl-4-hydroxy-4-methyl-8-[2-(4-fluorophenyl)ethyl]-3,8-diazaspiro[4,5]decane], for which the Protected animals in the assay on CFLP mice amounted to 60%.

For the compound `CCN1C(=O)OC2(CCN(CCc3ccc(F)cc3)CC2)C1(C)O` (stereo not drawn) [Compound 9, 1-Oxa-2-oxo-3-ethyl-4-hydroxy-4-methyl-8-[2-(4-fluorophenyl)ethyl]-3,8-diazaspiro[4,5]decane], the Protected animals in the assay on CFLP mice amounted to 60%.

As a reminder, the ED50 is the dose at which the effect has come halfway, by size or by number of responders. In general, IC50 refers to the concentration at which inhibition is half-maximal.
